Data as given in patent US11541055B2, “Inhibitors of human immunodeficiency virus replication” (ViiV Healthcare UK (No. 5) LIMITED, priority 2018, dated 2023).

Legend:
[1] = tested on: recombinant NL4-3 virus (Renilla luciferase) in MT-2 cells; experiment: HIV cell culture assay (antiviral activity, luciferase readout); format: cell-based; settings: Renilla, NL43
Description: HIV cell culture assay—MT-2 cells, 293T cells and the proviral DNA clone of NL4-3 virus were obtained from the NIH AIDS Research and Reference Reagent Program. MT-2 cells were propagated in RPMI 1640 media supplemented with 10% heat inactivated fetal bovine serum (FBS), […]. The 293T cells were propagated in DMEM media supplemented with 10% heat inactivated FBS, […] penicillin G and […] streptomycin. A recombinant NL40.3 proviral clone, in which a section of the nef gene was replaced with the Renilla luciferase gene, was used to make the reference virus used in these studies. The recombinant virus was prepared through transfection of the recombinant NL4-3 proviral clone into 293T cells using Transit-293 Transfection Reagent from Minis Bio LLC (Madison, Wis.). Supernatent was harvested after 2-3 days and the amount of virus present was titered in MT-2 cells using luciferase enzyme activity as a marker by measuring luciferase enzyme activity. Luciferase was quantitated using the EnduRen Live Cell Substrate from Promega (Madison, Wis.). Antiviral activities of compounds toward the recombinant virus were quantified by measuring luciferase activity in MT-2 cells infected for 4-5 days with the recombinant virus in the presence of serial dilutions of the compound.
The 50% effective concentration (EC50) was calculated by using the exponential form of the median effect equation where (Fa)=1/[1+(ED50/drug conc.)m] (Johnson V A, Byington R T. Infectivity Assay. In Techniques in HIV Research. ed. Aldovini A, Walker B D. 71-76. New York: Stockton Press. 1990). The 50% inhibitory concentration (EC50) was calculated by using the exponential form of the median effect equation where percent inhibition=1/[1+(EC50/drug concentration)m], where m is a parameter that reflects the slope of the concentration-response curve.

[2] = Compound cytotoxicity, XTT-based colorimetric assay; format: cell-based; settings: human; uninfected MT2 cells, day 4, XTT
Description: Compound cytotoxicity and the corresponding CC50 values were determined using the same protocol as described in the antiviral assay except that uninfected cells were used. Cytotoxicity was assessed on day 4 in uninfected MT2 cells by using a XTT (2,3-bis[2-Methoxy-4-nitro-5-sulfophenyl]-2H-tetrazolium-5-carboxyanilide inner salt)-based colorimetric assay (Sigma-Aldrich, St Louis, Mo.).

Q: For COc1ccc(-c2ccc3c(=O)n(-c4ccc(Cl)c5c(NS(C)(=O)=O)nn(CC(F)(F)F)c45)c([C@H](Cc4cc(F)cc(F)c4)NC(=O)Cn4nc(C(F)F)c5c4C(F)(F)[C@@H]4C[C@H]54)nc3c2)nn1 (atropisomer, axis not shown) [Example 110, N-[(1S)-1-{3-[4-chloro-3-methanesulfonamido-1-(2,2,2-trifluoroethyl)-1H-indazol-7-yl]-7-(6-methoxypyridazin-3-yl)-4-oxo-3,4-dihydroquinazolin-2-yl}-2-(3,5-difluorophenyl)ethyl]-2-[(2S,4R)-9-(difluoromethyl)-5,5-difluoro-7,8-diazatricyclo[4.3.0.0^2,^4]nona-1(6),8-dien-7-yl]acetamide], which EC50 [1] is on record?
A: 0.071 nM

Q: And the CC50 at 4 days [2]?
A: > 500 nM

Q: For CCc1ccnc(-c2ccc3c(=O)n(-c4ccc(Cl)c5c(NS(C)(=O)=O)nn(CC(F)(F)F)c45)c([C@H](Cc4cc(F)cc(F)c4)NC(=O)Cn4nc(C(F)F)c5c4C(F)(F)[C@@H]4C[C@H]54)nc3c2)n1 (atropisomer, axis not shown) [Example 111, N-[(1S)-1-{3-[4-chloro-3-methanesulfonamido-1-(2,2,2-trifluoroethyl)-1H-indazol-7-yl]-7-(4-ethylpyrimidin-2-yl)-4-oxo-3,4-dihydroquinazolin-2-yl}-2-(3,5-difluorophenyl)ethyl]-2-[(2S,4R)-9-(difluoromethyl)-5,5-difluoro-7,8-diazatricyclo[4.3.0.0^2,^4]nona-1(6),8-dien-7-yl]acetamide], which EC50 [1] is on record?
A: 0.11 nM

Q: And the CC50 at 4 days [2]?
A: > 500 nM

Q: Which EC50 [1] does the source give for CS(=O)(=O)Nc1nn(CC(F)(F)F)c2c(-n3c([C@H](Cc4cc(F)cc(F)c4)NC(=O)Cn4nc(C(F)F)c5c4C(F)(F)[C@@H]4C[C@H]54)nc4cc(-c5ncccc5S(C)(=O)=O)ccc4c3=O)ccc(Cl)c12 (atropisomer, axis not shown) [Example 112] here?
A: 0.075 nM

Q: And the CC50 at 4 days [2]?
A: > 500 nM

Q: With Cc1ccc(F)c(-c2ccc3c(=O)n(-c4ccc(Cl)c5c(NS(C)(=O)=O)nn(CC(F)(F)F)c45)c([C@H](Cc4cc(F)cc(F)c4)NC(=O)Cn4nc(C(F)F)c5c4C(F)(F)[C@@H]4C[C@H]54)nc3c2)n1 (atropisomer, axis not shown) [Example 113] as the molecule, how does the EC50 [1] read?
A: 0.1 nM

Q: What about the CC50 at 4 days [2] of the same molecule?
A: > 500 nM

Q: Which EC50 [1] does the source give for Cc1ncc(-c2ccc3c(=O)n(-c4ccc(Cl)c5c(NS(C)(=O)=O)nn(CC(F)(F)F)c45)c([C@H](Cc4cc(F)cc(F)c4)NC(=O)Cn4nc(C(F)F)c5c4C(F)(F)[C@@H]4C[C@H]54)nc3c2)s1 (atropisomer, axis not shown) [Example 114] here?
A: 0.15 nM

Q: And the CC50 at 4 days [2]?
A: > 500 nM

Q: Which results are given for COc1cnc(-c2ccc3c(=O)n(-c4ccc(Cl)c5c(NS(C)(=O)=O)nn(CC(F)(F)F)c45)c([C@H](Cc4cc(F)cc(F)c4)NC(=O)Cn4nc(C(F)F)c5c4C(F)(F)[C@@H]4C[C@H]54)nc3c2)nc1 (atropisomer, axis not shown) [Example 115, N-[(1S)-1-{3-[4-chloro-3-methanesulfonamido-1-(2,2,2-trifluoroethyl)-1H-indazol-7-yl]-7-(5-methoxypyrimidin-2-yl)-4-oxo-3,4-dihydroquinazolin-2-yl}-2-(3,5-difluorophenyl)ethyl]-2-[(2S,4R)-9-(difluoromethyl)-5,5-difluoro-7,8-diazatricyclo[4.3.0.0^2,^4]nona-1(6),8-dien-7-yl]acetamide]?
A: EC50 [1]: 0.098 nM; CC50 at 4 days [2]: > 500 nM

Q: For COc1ncc(-c2ccc3c(=O)n(-c4ccc(Cl)c5c(NS(C)(=O)=O)nn(CC(F)(F)F)c45)c([C@H](Cc4cc(F)cc(F)c4)NC(=O)Cn4nc(C(F)F)c5c4C(F)(F)[C@@H]4C[C@H]54)nc3c2)cn1 (atropisomer, axis not shown) [Example 116, N-[(1S)-1-{3-[4-chloro-3-methanesulfonamido-1-(2,2,2-trifluoroethyl)-1H-indazol-7-yl]-7-(2-methoxypyrimidin-5-yl)-4-oxo-3,4-dihydroquinazolin-2-yl}-2-(3,5-difluorophenyl)ethyl]-2-[(2S,4R)-9-(difluoromethyl)-5,5-difluoro-7,8-diazatricyclo[4.3.0.0^2,^4]nona-1(6),8-dien-7-yl]acetamide], which EC50 [1] is on record?
A: 0.072 nM

Q: What about the CC50 at 4 days [2] of the same molecule?
A: > 500 nM

Q: Which results are given for Cn1nc(NS(C)(=O)=O)c2c(Cl)ccc(-n3c([C@H](Cc4cc(F)cc(F)c4)NC(=O)Cn4nc(C(F)F)c5c4C(F)(F)[C@@H]4C[C@H]54)nc4cc(-c5cccc(C(F)F)n5)ccc4c3=O)c21 (atropisomer, axis not shown) [Example 117]?
A: EC50 [1]: 0.069 nM; CC50 at 4 days [2]: > 500 nM

Q: Which EC50 [1] does the source give for Cc1cc(-c2ccc3c(=O)n(-c4ccc(Cl)c5c(NS(C)(=O)=O)nn(C)c45)c([C@H](Cc4cc(F)cc(F)c4)NC(=O)Cn4nc(C(F)F)c5c4C(F)(F)[C@@H]4C[C@H]54)nc3c2)nc(CO)n1 (atropisomer, axis not shown) [Example 118, N-[(1S)-1-[3-(4-chloro-3-methanesulfonamido-1-methyl-1H-indazol-7-yl)-7-[2-(hydroxymethyl)-6-methylpyrimidin-4-yl]-4-oxo-3,4-dihydroquinazolin-2-yl]-2-(3,5-difluorophenyl)ethyl]-2-[(2S,4R)-9-(difluoromethyl)-5,5-difluoro-7,8-diazatricyclo[4.3.0.0^2,^4]nona-1(6),8-dien-7-y]acetamide] here?
A: 0.048 nM

Q: What about the CC50 at 4 days [2] of the same molecule?
A: > 500 nM

Q: For Cc1nc(C)c(F)c(-c2ccc3c(=O)n(-c4ccc(Cl)c5c(NS(C)(=O)=O)nn(C)c45)c([C@H](Cc4cc(F)cc(F)c4)NC(=O)Cn4nc(C(F)F)c5c4C(F)(F)[C@@H]4C[C@H]54)nc3c2)n1 (atropisomer, axis not shown) [Example 119, N-[(1S)-1-[3-(4-chloro-3-methanesulfonamido-1-methyl-1H-indazol-7-yl)-7-(5-fluoro-2,6-dimethylpyrimidin-4-yl)-4-oxo-3,4-dihydroquinazolin-2-yl]-2-(3,5-difluorophenyl)ethyl]-2-[(2S,4R)-9-(difluoromethyl)-5,5-difluoro-7,8-diazatricyclo[4.3.0.0^2,^4]nona-1(6),8-dien-7-yl]acetamide], which EC50 [1] is on record?
A: 0.087 nM

Q: And the CC50 at 4 days [2]?
A: > 500 nM

Q: With Cn1nc(NS(C)(=O)=O)c2c(Cl)ccc(-n3c([C@H](Cc4cc(F)cc(F)c4)NC(=O)Cn4nc(C(F)F)c5c4C(F)(F)[C@@H]4C[C@H]54)nc4cc(-c5cccc(C(F)F)c5)ccc4c3=O)c21 (atropisomer, axis not shown) [Example 120] as the molecule, how does the EC50 [1] read?
A: 0.38 nM

Q: And the CC50 at 4 days [2]?
A: > 500 nM

Q: For Cc1nccc(-c2ccc3c(=O)n(-c4ccc(Cl)c5c(NS(C)(=O)=O)nn(CC(F)F)c45)c([C@H](Cc4cc(F)cc(F)c4)NC(=O)Cn4nc(C(F)F)c5c4C(F)(F)[C@@H]4C[C@H]54)nc3c2)n1 (atropisomer, axis not shown) [Example 121, N-[(1S)-1-{3-[4-chloro-1-(2,2-difluoroethyl)-3-methanesulfonamido-1H-indazol-7-yl]-7-(2-methylpyrimidin-4-yl)-4-oxo-3,4-dihydroquinazolin-2-yl}-2-(3,5-difluorophenyl)ethyl]-2-[(2S,4R)-9-(difluoromethyl)-5,5-difluoro-7,8-diazatricyclo[4.3.0.0^2,^4]nona-1(6),8-dien-7-yl]acetamide], which EC50 [1] is on record?
A: 0.067 nM

Q: What about the CC50 at 4 days [2] of the same molecule?
A: > 500 nM

Q: Which EC50 [1] does the source give for Cc1ccc(F)c(-c2ccc3c(=O)n(-c4ccc(Cl)c5c(NS(C)(=O)=O)nn(CC(F)F)c45)c([C@H](Cc4cc(F)cc(F)c4)NC(=O)Cn4nc(C(F)F)c5c4C(F)(F)[C@@H]4C[C@H]54)nc3c2)n1 (atropisomer, axis not shown) [Example 122] here?
A: 0.08 nM

Q: And the CC50 at 4 days [2]?
A: > 500 nM

Q: For Cc1ncc(-c2ccc3c(=O)n(-c4ccc(Cl)c5c(NS(C)(=O)=O)nn(CC(F)F)c45)c([C@H](Cc4cc(F)cc(F)c4)NC(=O)Cn4nc(C(F)F)c5c4C(F)(F)[C@@H]4C[C@H]54)nc3c2)s1 (atropisomer, axis not shown) [Example 123, N-[(1S)-1-{3-[4-chloro-1-(2,2-difluoroethyl)-3-methanesulfonamido-1H-indazol-7-yl]-7-(2-methyl-1,3-thiazol-5-yl)-4-oxo-3,4-dihydroquinazolin-2-yl}-2-(3,5-difluorophenyl)ethyl]-2-[(2S,4R)-9-(difluoromethyl)-5,5-difluoro-7,8-diazatricyclo[4.3.0.0^2,^4]nona-1(6),8-dien-7-yl]acetamide], which EC50 [1] is on record?
A: 0.087 nM

Q: And the CC50 at 4 days [2]?
A: > 500 nM
